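These data come from cells grown in 96-well plates and exposed to compound for 48 hours at five concentrations. The concentration for 50% growth inhibition is given as GI50. At the TGI there is no net growth.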
Key:
Experiment in all cases: growth of human tumour cells (NCI), 48 h
SK-OV-3 ovarian = system: SK-OV-3 ovarian
HS 578T breast = system: HS 578T breast
MDA-MB-435 = system: MDA-MB-435
OVCAR-5 ovarian = system: OVCAR-5 ovarian
U251 CNS = system: U251 CNS
HOP-62 NSCLC = system: HOP-62 NSCLC
PC-3 prostate = system: PC-3 prostate
NCI-H522 lung = system: NCI-H522 lung
786-0 renal = system: 786-0 renal
NCI-H460 lung = system: NCI-H460 lung
SF-295 CNS = system: SF-295 CNS
HCT-116 colon = system: HCT-116 colon
ACHN renal = system: ACHN renal
SF-268 CNS = system: SF-268 CNS
MOLT-4 leukemia = system: MOLT-4 leukemia
MDA-MB-231 breast = system: MDA-MB-231 breast
RXF 393 renal = system: RXF 393 renal
SNB-19 CNS = system: SNB-19 CNS
KM12 colon = system: KM12 colon
A549 NSCLC = system: A549 NSCLC
OVCAR-4 ovarian = system: OVCAR-4 ovarian
OVCAR-8 ovarian = system: OVCAR-8 ovarian
HCC-2998 colon = system: HCC-2998 colon
UACC-257 melanoma = system: UACC-257 melanoma
DU-145 prostate = system: DU-145 prostate
IGROV1 ovarian = system: IGROV1 ovarian
OVCAR-3 ovarian = system: OVCAR-3 ovarian
T-47D breast = system: T-47D breast
SNB-75 CNS = system: SNB-75 CNS
NCI/ADR-RES ovarian = system: NCI/ADR-RES ovarian
UO-31 renal = system: UO-31 renal
MALME-3M melanoma = system: MALME-3M melanoma
NCI-H226 lung = system: NCI-H226 lung
HOP-92 NSCLC = system: HOP-92 NSCLC
SN12C renal = system: SN12C renal
BT-549 breast = system: BT-549 breast
RPMI-8226 leukemia = system: RPMI-8226 leukemia
K-562 leukemia = system: K-562 leukemia
TK-10 renal = system: TK-10 renal
COLO 205 colon = system: COLO 205 colon
CCRF-CEM leukemia = system: CCRF-CEM leukemia
SW-620 colon = system: SW-620 colon
EKVX NSCLC = system: EKVX NSCLC
HCT-15 colon = system: HCT-15 colon
CAKI-1 renal = system: CAKI-1 renal
SK-MEL-2 melanoma = system: SK-MEL-2 melanoma
SK-MEL-28 melanoma = system: SK-MEL-28 melanoma
HT29 colon = system: HT29 colon
MCF7 breast = system: MCF7 breast
UACC-62 melanoma = system: UACC-62 melanoma
LOX IMVI melanoma = system: LOX IMVI melanoma

COc1cccc(/C=C/C(=O)c2c(C)nc3ccccc3c2/C=C/c2ccccc2)c1OC
GI50 (SK-OV-3 ovarian): 54.1 µM
TGI (SK-OV-3 ovarian): > 100 µM
GI50 (HS 578T breast): 3.59 µM
TGI (HS 578T breast): > 100 µM

O=C1c2ccccc2-c2c1c1ccccc1c(=O)n2CCN1CCNCC1
GI50 (MDA-MB-435): 1.97 µM
TGI (MDA-MB-435): 4.2 µM
GI50 (OVCAR-5 ovarian): 1.55 µM
TGI (OVCAR-5 ovarian): 6.92 µM
GI50 (U251 CNS): 1.08 µM
TGI (U251 CNS): 3.66 µM
GI50 (HOP-62 NSCLC): 1.92 µM
TGI (HOP-62 NSCLC): 6.27 µM
GI50 (PC-3 prostate): 4.02 µM
TGI (PC-3 prostate): 17.8 µM
GI50 (NCI-H522 lung): 3.06 µM
TGI (NCI-H522 lung): 19.3 µM
GI50 (786-0 renal): 2.88 µM
TGI (786-0 renal): 12.4 µM
GI50 (NCI-H460 lung): 0.668 µM
TGI (NCI-H460 lung): > 100 µM
GI50 (SF-295 CNS): 0.552 µM
TGI (SF-295 CNS): 3.05 µM
GI50 (HCT-116 colon): 0.573 µM
TGI (HCT-116 colon): 3.97 µM
GI50 (ACHN renal): 0.316 µM
TGI (ACHN renal): 1.3 µM
GI50 (SF-268 CNS): 5.83 µM
TGI (SF-268 CNS): 26.4 µM
GI50 (MOLT-4 leukemia): 0.253 µM
TGI (MOLT-4 leukemia): 0.688 µM
GI50 (MDA-MB-231 breast): 2.45 µM
TGI (MDA-MB-231 breast): 10.7 µM
GI50 (RXF 393 renal): 4.31 µM
TGI (RXF 393 renal): 19.6 µM
GI50 (SNB-19 CNS): 1.32 µM
TGI (SNB-19 CNS): 4.9 µM
GI50 (KM12 colon): 1.24 µM
TGI (KM12 colon): 3.47 µM
GI50 (A549 NSCLC): 0.576 µM
TGI (A549 NSCLC): 3.6 µM
GI50 (OVCAR-4 ovarian): 10.4 µM
TGI (OVCAR-4 ovarian): 33 µM
GI50 (OVCAR-8 ovarian): 0.968 µM
TGI (OVCAR-8 ovarian): 3.59 µM
GI50 (HCC-2998 colon): 0.785 µM
TGI (HCC-2998 colon): 5.01 µM
GI50 (UACC-257 melanoma): 4.98 µM
TGI (UACC-257 melanoma): 16.9 µM
GI50 (DU-145 prostate): 3.11 µM
TGI (DU-145 prostate): 8.79 µM
GI50 (IGROV1 ovarian): 3.61 µM
TGI (IGROV1 ovarian): > 100 µM
GI50 (OVCAR-3 ovarian): 1.12 µM
TGI (OVCAR-3 ovarian): 6.93 µM
GI50 (T-47D breast): 2.4 µM
TGI (T-47D breast): 16.2 µM
GI50 (SNB-75 CNS): 6.26 µM
TGI (SNB-75 CNS): 23.2 µM
GI50 (SK-OV-3 ovarian): 1.73 µM
TGI (SK-OV-3 ovarian): 6.26 µM
GI50 (NCI/ADR-RES ovarian): 2.55 µM
TGI (NCI/ADR-RES ovarian): 11.4 µM
GI50 (UO-31 renal): 2.24 µM
TGI (UO-31 renal): 13 µM
GI50 (MALME-3M melanoma): 2.53 µM
TGI (MALME-3M melanoma): 6.79 µM
GI50 (NCI-H226 lung): 1.06 µM
TGI (NCI-H226 lung): 3.15 µM
GI50 (HOP-92 NSCLC): 4.44 µM
TGI (HOP-92 NSCLC): 17.4 µM
GI50 (SN12C renal): 2.21 µM
TGI (SN12C renal): 18.1 µM
GI50 (BT-549 breast): 4.96 µM
TGI (BT-549 breast): 17.8 µM
GI50 (RPMI-8226 leukemia): 1.63 µM
TGI (RPMI-8226 leukemia): 4.43 µM
GI50 (K-562 leukemia): 0.902 µM
TGI (K-562 leukemia): 5.05 µM
GI50 (TK-10 renal): 2.21 µM
TGI (TK-10 renal): 11.3 µM
GI50 (COLO 205 colon): 5.4 µM
TGI (COLO 205 colon): 18.2 µM
GI50 (CCRF-CEM leukemia): 0.671 µM
TGI (CCRF-CEM leukemia): 4.26 µM
GI50 (SW-620 colon): 1.47 µM
TGI (SW-620 colon): 7.28 µM
GI50 (EKVX NSCLC): 7.24 µM
TGI (EKVX NSCLC): 26.4 µM
GI50 (HS 578T breast): 3.74 µM
TGI (HS 578T breast): 26.5 µM
GI50 (HCT-15 colon): 0.935 µM
TGI (HCT-15 colon): 11.3 µM
GI50 (CAKI-1 renal): 0.465 µM
TGI (CAKI-1 renal): 2.9 µM
GI50 (SK-MEL-2 melanoma): 12.7 µM
TGI (SK-MEL-2 melanoma): 36.2 µM
GI50 (SK-MEL-28 melanoma): 5.82 µM
TGI (SK-MEL-28 melanoma): 27.6 µM
GI50 (HT29 colon): 1.58 µM
TGI (HT29 colon): 8.02 µM
GI50 (MCF7 breast): 0.836 µM
TGI (MCF7 breast): 17.5 µM
GI50 (UACC-62 melanoma): 1.37 µM
TGI (UACC-62 melanoma): 3.15 µM
GI50 (LOX IMVI melanoma): 0.735 µM
TGI (LOX IMVI melanoma): 2.99 µM

From PubChem BioAssay (NCI)
